Molecules are shown by their SMILES. Read-outs that look alike come from different tables or passages of the source.

Assay [1] deals with NUT midline carcinoma cells (11060). Nature of the assay: Cancer cell line proliferation assay, 11060. Format: cell-based. The note with it: 11060 cells, 72 hours, CellTiter Glo, n = 3. The method, then:
(§1) The impact of the compound of Examples 7 and 14 on cancer cell proliferation was determined using patient derived NUT midline carcinoma cells (11060), multiple myeloma cells (OPM-2, DSMZ) and biphenotypic B myelomonocytic leukaemia cells (MV-4-11, ATCC) in a 72 hour proliferation assay. 11060 and OPM-2 cells were maintained in RPMI 1640 medium (Invitrogen) supplemented with 10% HI-FBS (Heat-Inactivated Fetal Bovine Serum, Hyclone) and 2 mM L-glutamine (Invitrogen) at 37° C. and an atmosphere of 5% CO2. MV-4-11 cells were maintained in IMDM media supplemented with 10% HI-FCS, 2 mM L-glutamine, 1× Non-essential amino acids (Invitrogen) and 1× sodium pyruvate (1 mM) (Invitrogen). Cells were diluted to 1.11×10^5 cells/mL and 90 μL/well plated into black sided, clear bottomed 96 well tissue culture plates (Corning), using growth media supplemented with penicillin/streptomycin (Invitrogen). Cells were incubated overnight at 37° C. and in one plate, ATP levels were measured using the CellTiter Glo assay (Promega) according to the manufacturer's instructions, to give a baseline reading (t=0). 3-fold serial dilutions of compounds ranging from 6 mM to 0.3 μM were prepared in 100% DMSO. The DMSO dilution series was diluted 20-fold in growth media before 10 μl of the resulting dilutions were added to the appropriate wells of the remaining cell plates. The final compound concentrations in the wells ranged from 30 μM to 1.5 nM in 0.5% DMSO. Cells were incubated with compounds for 72 hours before assaying for ATP content using CellTiter Glo (t=72). CellTiter Glo data from each t=72 time point was normalised to the relevant t=0 time point data, and expressed as % t=0.
A general note: Cellular ATP, detected with luciferase, serves as a proxy for viable cell number.

The subject of assay [2] is biphenotypic B myelomonocytic leukaemia cells (MV-4-11). Nature of the assay: Cancer cell line proliferation assay, MV-4-11. The class given is cell-based. The note with it: Homo sapiens, MV4-11, MV-4-11 cells, 72 hours, CellTiter Glo, n = 3. The method, then: as §1
Assay [3] deals with multiple myeloma cells (OPM-2). Nature of the assay: Cancer cell line proliferation assay, OPM-2. The class given is cell-based. The note with it: Homo sapiens, OPM-2 cells, 72 hours, CellTiter Glo, n = 2. The procedure:
as §1

The subject of assay [4] is Bromodomains BRD2, BRD3, BRD4 and BRDT. Nature of the assay: Fluoroligand affinity for mutated vs non-mutated bromodomain. Set-up: species or system Human. The note with it: single residue mutations in the acetyl lysine binding pocket. The procedure:
The binding of the compounds of formulae (I)-(XVI) to Bromodomains BRD2, BRD3, BRD4 and BRDT was assessed using mutated proteins to detect differential binding to either Binding Domain 1 (BD1) or Binding Domain 2 (BD2) on the bromodomain. These single residue mutations in the acetyl lysine binding pocket greatly lower the affinity of the fluoroligand (Reference Compound X) for the mutated domain (>1000 fold selective for the non-mutated domain). Therefore in the final assay conditions, binding of the fluoroligand to the mutated domain cannot be detected and subsequently the assay is suitable to determine the binding of compounds to the single non-mutated bromodomain. […]

Setting [5] is: full curve fit, read-out: Cellular Proliferation: pIC50 (converted).
The mark [6] stands for this setting: read-out: Cellular Proliferation: gpIC50 (converted).

As to `CC(=O)N1c2ccc(C(N)=O)cc2[C@H](Nc2ncc(Cl)cn2)[C@@H](C)[C@@H]1C` [Example 7, (2S,3R,4R)-1-acetyl-4-((5-chloropyrimidin-2-yl)amino)-2,3-dimethyl-1,2,3,4-tetrahydroquinoline-6-carboxamide], the IC50 was 0.631 µM in assay [1] (setting [5]); 0.398 µM in assay [1] (setting [6]); 0.2 µM in assay [2] (setting [5]); 0.158 µM in assay [2] (setting [6]); 0.1 µM in assay [3] (setting [5]); 0.0501 µM in assay [3] (setting [6]).

Take `COc1ccc2c(c1)C(c1ccc(Cl)cc1)=N[C@@H](CC(=O)NCCCCCNC(=O)CCCCCC1(C)/C(=C/C=C/C=C/C3=[N+](CCCCS(=O)(=O)O)c4ccc(S(=O)(=O)O)cc4C3(C)C)N(CCCCS(=O)(=O)[O-])c3ccc(S(=O)(=O)O)cc31)c1nnc(C)n1-2` (stereo partly shown) [Reference Compound X]: in assay [4], the “selectivity for the non-mutated domain over the mutated domain” value is greater than 1000 fold.

For the origin of these results see patent US10059699B2, “Tetrahydroquinoline derivatives as bromodomain inhibitors” (GlaxoSmithKline Intellectual Property (No.2) Limited, priority 2014, dated 2018).
